Test results reported in ChEMBL document CHEMBL4359921, “Discovery of potent 4-aminoquinoline hydrazone inhibitors of NRH:quinoneoxidoreductase-2 (NQO2)” (Eur J Med Chem, 2019).

What was measured:
SK-OV-3 [1] = test: Cytotoxicity against human SKOV3 cells assessed as reduction in cell viability incubated for 24 hrs by MTT assay; details: SK-OV-3, 24 h
SK-OV-3 [2] = test: Cytotoxicity against human SKOV3 cells assessed as reduction in cell viability incubated for 96 hrs by MTT assay; details: SK-OV-3, 96 h
SK-OV-3 [3] = test: Cytotoxicity against human SKOV3 cells transfected with non-targeted vector assessed as reduction in cell viability incubated for 96 hrs in presence of doxycycline by MTT assay; details: SK-OV-3, 96 h
SK-OV-3 [4] = test: Cytotoxicity against human SKOV3 cells transfected with shRNA assessed as reduction in cell viability incubated for 96 hrs in presence of doxycycline by MTT assay; details: SK-OV-3, 96 h
TOV112D [5] = test: Cytotoxicity against human TOV112D cells transfected with empty vector assessed as reduction in cell viability incubated for 96 hrs by MTT assay
TOV112D [6] = test: Cytotoxicity against human TOV112D cells expressing NQO2 assessed as reduction in cell viability incubated for 96 hrs by MTT assay
[7] = target: NAD(P)H dehydrogenase [quinone] 1 (Homo sapiens, UniProt P15559); test: Inhibition of recombinant human NQO1 expressed in Escherichia coli using DCPIP as substrate by spectrophotometry
NAD(P)H dehydrogenase [quinone] 1, sequence (P15559 whole entry): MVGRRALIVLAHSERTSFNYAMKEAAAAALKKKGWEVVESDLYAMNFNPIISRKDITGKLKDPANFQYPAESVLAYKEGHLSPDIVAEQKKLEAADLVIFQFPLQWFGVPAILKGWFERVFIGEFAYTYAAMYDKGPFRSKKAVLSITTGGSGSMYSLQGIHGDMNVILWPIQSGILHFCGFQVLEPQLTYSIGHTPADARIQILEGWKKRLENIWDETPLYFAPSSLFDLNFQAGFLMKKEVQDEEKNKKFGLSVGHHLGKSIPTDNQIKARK

| Structure (SMILES) | IC50 (SK-OV-3 [1]) [µM] | IC50 (SK-OV-3 [2]) [µM] | IC50 (SK-OV-3 [3]) [µM] | IC50 (SK-OV-3 [4]) [µM] | IC50 (TOV112D [5]) [µM] | IC50 (TOV112D [6]) [µM] | IC50 [7] | IC50 ([7]; read-out: IC50) [µM] |
| --- | --- | --- | --- | --- | --- | --- | --- | --- |
| COc1ccc2nc(C)cc(N/N=C/c3cccc(OC)c3O)c2c1 | 2.1 | 2 | 2.7 | 2.78 | 3.4 | 3.77 | – | – |
| COc1ccc2nc(C)cc(N/N=C/c3ccccc3)c2c1 | 1.77 | 1.73 | – | – | – | – | – | – |
| COc1ccc2nc(C)cc(N/N=C/c3ccc(F)cc3)c2c1 | 2.3 | 2.3 | – | – | – | – | – | – |
| COc1ccc2nc(C)cc(N/N=C/Cc3ccccc3)c2c1 | 50 | 40.7 | 44.7 | 49.7 | 42.5 | 41 | Not Active | – |
| COc1ccc2nc(C)cc(N/N=C/c3ccc(O)cc3)c2c1 | 2.75 | 2.3 | 2.87 | 2.58 | 3.17 | 2.98 | – | – |
| COc1ccc2nc(-c3ccccc3)cc(N/N=C/c3c[nH]cn3)c2c1 | 2.47 | 2.17 | – | – | – | – | – | 0.425 |
| COc1ccc2nc(C)cc(NNC(=O)c3ccc(F)cc3)c2c1 | > 100 | > 100 | > 100 | > 100 | 61.3 | 57.3 | Not Active | – |
| COc1ccc2nc(-c3ccccc3)cc(N/N=C/c3cccnc3)c2c1 | 2.8 | 2.2 | – | – | – | – | Not Active | – |
| COc1ccc2nc(-c3ccccc3)cc(N/N=C/c3cccc(OC)c3O)c2c1 | 2.88 | 2.73 | – | – | – | – | Not Active | – |
| COc1ccc2nc(C)cc(NN)c2c1 | 84 | 41 | – | – | – | – | – | – |
| COc1ccc2nc(-c3ccccc3)cc(N/N=C/c3ccc(N(C)C)cc3)c2c1 | 1.57 | 1.53 | – | – | – | – | – | – |
| COc1ccc2nc(C)cc(NNC(=O)c3ccccc3)c2c1 | 68.3 | 43.3 | – | – | – | – | – | – |
| COc1ccc2nc(C)cc(N/N=C/c3ccc(C(=O)O)cc3)c2c1 | > 100 | 70 | 65 | 61.3 | > 100 | > 100 | Not Active | – |
| COc1ccc2nc(C)cc(N/N=C/c3c[nH]cn3)c2c1 | 32 | 4.2 | 6.9 | 6.73 | 3.65 | 3.72 | – | – |
| Nc1c2ccccc2nc2ccccc12 [AMINACRINE] | 5.43 | 2.78 | 2.53 | 2.57 | 3.6 | 3.15 | – | – |
| Oc1ccc(/C=C/c2cc(O)cc(O)c2)cc1 [RESVERATROL] | 91.7 | 36.3 | 29 | 39.7 | 10.7 | 11 | – | – |
